In paper PMC6290777, “Inhalation of the prodrug PI3K inhibitor CL27c improves lung function in asthma and fibrosis” (Nature Communications, 2018):

Experiments:
[1] = Microsomial stability, human; type: in vitro ADME; settings: human liver microsomes, NADPH
Protocol: To define whether this prodrug was suitable for inhaled administration, CL27c was studied to evaluate selected ADME (absorption, distribution, metabolism, and excretion) and pharmacokinetic properties. First, stability of CL27c and CL27e was analyzed in mouse plasma (Supplementary Table 1) and in mouse, rat, and human liver microsomes in the presence of nicotinamide adenine dinucleotide phosphate (NADPH; Supplementary Table 2). Next, clearance of CL27c was analyzed in C57BL/6J mice after either intra-venous or oral administration. […] Clearance of CL27c and CL27e after oral administration could not be determined due to their low bioavailability (Supplementary Table 3). Next, pharmacokinetics after inhalation was studied in C57BL/6J mice after delivering an aerosolized micro-suspension of CL27c. As shown in Table 1 and Supplementary Fig. 1b, CL27c dose-dependently reached the lungs and its metabolite CL27e was detectable after inhalation of the highest dose. […] Therefore, the inhaled prodrug promotes local effects but prevents systemic absorption of pharmacologically relevant amounts of the active compound. […]
All tests for the microsomial stability of CL27c were conducted by the Istituto di Ricerche Biomediche (RBM) SpA – Merck Serono, Ivrea, Italy. […]
Then, cells […]
pretreated with different doses of CL27c were incubated at 37°C and 5% CO 2 for 10 minutes. […]

[2] = Glycemia and insulin challenge after inhaled CL27c; type: in vivo, mice; settings: N.S. vs vehicle
Protocol: To define whether this prodrug was suitable for inhaled administration, CL27c was studied to evaluate selected ADME (absorption, distribution, metabolism, and excretion) and pharmacokinetic properties. First, stability of CL27c and CL27e was analyzed in mouse plasma (Supplementary Table 1) and in mouse, rat, and human liver microsomes in the presence of nicotinamide adenine dinucleotide phosphate (NADPH; Supplementary Table 2). Next, clearance of CL27c was analyzed in C57BL/6J mice after either intra-venous or oral administration. […] Clearance of CL27c and CL27e after oral administration could not be determined due to their low bioavailability (Supplementary Table 3). Next, pharmacokinetics after inhalation was studied in C57BL/6J mice after delivering an aerosolized micro-suspension of CL27c. As shown in Table 1 and Supplementary Fig. 1b, CL27c dose-dependently reached the lungs and its metabolite CL27e was detectable after inhalation of the highest dose. […] Therefore, the inhaled prodrug promotes local effects but prevents systemic absorption of pharmacologically relevant amounts of the active compound.
Animals were fasted overnight and, the day after, they were treated for 30 min with aerosolized CL27c (2 mg/ml in 0.5 % tylaxopol/saline solution). […]

[3] = system: fMLP-activated LPS-primed neutrophils; assay: ROS production by fMLP-activated LPS-primed neutrophils; type: cell-based, mouse; settings: fMLP 2.5 μM; CL27c 1 and 10 µM
Protocol: Production of ROS was determined by primary isolated neutrophils (5 × 10^6/mL) (as described above) with lipopolysaccharide (1 μg/mL) for 1 h and then preincubating them with luminol (20 μg/mL) and horseradish peroxidase (35 μg/mL) in RPMI medium plus 10% FCS. The cells were subsequently stimulated with 2.5 μM formyl-methionyl-leucyl-phenylalanine (fMLP, Sigma-Aldrich), and light emission was recorded every 5 sec for a period of 300 sec in a Berthold MicroLumat Plus luminometer (Berthold Technologies).

[4] = system: PBMCs; assay: PBMCs proliferation (MTT); type: cell-based, human
Protocol: PBMCs in RPMI medium were seeded in a 96-well tissue culture plates at 5 × 10^3 cells/well (Cell Star, Frickenhausen, Germany). PBMCs were activated with vehicle (PBS) or anti-CD3 (5 μg/mL) plus soluble anti-CD28 (2 μg/mL) mAbs (BD Pharmingen, San Jose, CA, USA). Then, the cells were incubated at 37 °C and 5% CO2 for 48 h. Cell proliferation was assayed by MTT (3-(4,5-dimethylthiazol-2-yl)-2,5-diphenyltetrazolium bromide) assay (Roche Life Science, Mannheim, BW, Germany) following the manufacturer’s instructions. Briefly, 10 μL of MTT (3 mg/mL) was added to each well containing cells in 100 μL medium and incubated for 2 h at 37 °C. Then, 100 μL of lysis buffer was added allowing the dissolution of formazan crystals. After 15 min at room temperature the absorbance was read at 560 nm with reference of 690 nm using GloMax®-Multi Microplate Multimode Reader (Promega, Madison, Wisconsin, EUA).

COC(=O)c1cccc(Cn2cc(-c3cccc4c(=O)cc(N5CCOCC5)[nH]c34)nn2)c1 [CL27c]
Clint (intrinsic clearance) [1]: 0.1 ± 0.03 ml/min/mg prot | t1/2 [1]: 10.2 ± 2.2 min | drop in glycemia 10 min after an insulin challenge [2]: 17.45 ± 3.00 % drop | glycemia [2]: 213.0 ± 5.6 mg/dL | reactive oxygen species production (respiratory burst) [3]: efficiently and dose-dependently inhibited reactive oxygen species production | anti-proliferative effect on PBMC relative to dexamethasone ([4]; CL27c 5 μM): comparable to the reference compound dexamethasone | proliferation of PBMC ([4]; stimulated with antibodies against CD28, CL27c 0.5 and 5 µM, concentration-dependent): block proliferation
